Laboratory results as given in patent publication US20150141460A1, “Anti-inflammatory Compositions” (Cambridge Enterprise Limited, priority 2007, published 2015).
Where two headings read alike, the source gives them in different places. One block for each compound: values may come before it.

Experiments:
[1] = Pharmacokinetics following a single dose in rat (1 mg/kg iv, 3 mg/kg oral), LC-MS/MS, one-compartment model; assay type: in vivo; conditions: for bioavailability / clearance / Vd / half-life: plasma; for bioavailability: 3 mg/kg oral in 1% CMC vs 1 mg/kg iv, one-compartment model, read-out: F (%) oral bioavailability; for clearance / Vd / half-life: iv, 1 mg/kg; for Vd: read-out: Vss (L/kg) volume of distribution; for AUC(0-t): blood, single oral dose 3 mg/kg in 1% CMC, Tables 7-9, read-out: Exposure (min · ng/ml), oral exposure AUC 0-t (converted)
Experimental: Compounds were administered as a single dose (either 1 mg/kg bodyweight in 5% DMSO via the intravenous route or 3 mg/kg in 1% carboxymethylcellulose via the oral route) to three adult rats (using different rats for each compound and each route of administration).
Blood was then sampled at various time points (including just prior to dose administration) out to 24 hrs post dose, and the level of the various compounds was assessed using a validated LC-MS/MS assay. Briefly, 3-5 μl of the deproteinised sample was applied to a Waters Atlantis (C18 20×2.1 mm, 3 μm bead size) reverse phase chromatography column equilibrated in 0.1% formic acid in 95:5 water:actetonitrile. Over 3.5 minutes bound material was gradient eluted reaching 0.1% formic acid in 5:95 water:acetonitrile, followed by a step gradient back to 0.1% formic acid in 95:5 water:acetonitrile. The column eluent was then directed to an Applied Biosystems API 4000/3200 QTrap MS/MS mass spectrometer, with a TurboIonspray™ ion source operating in positive ion mode. The interface temperature was set at 650° C., with a 40 ms dwell time for each MRM transition, monitoring the following ions:
The internal standard in each determination was the related compound (S)-3-(2′,2′-dimethyl-propanoylamino)-caprolactam, which was spiked into the sample prior to deproteinization. The lower limit of quantitation (LLOQ) for this assay was 2.4 ng/ml for each compound except (I′), where it was 38.1 ng/ml.
Following LC-MS/MS analysis of each collected sample, the pharmacokinetic disposition of the compound was modelled using Kinetica software, a well known software package for such applications.
Compounds (VI) and (VII) were subject to pharmacokinetic analysis in rat using exactly the same protocols previous applied for compounds (I) through (V) in example 1.
We therefore subjected (VIII) to pharmacokinetic analysis in rat using exactly the same protocols previous applied for compounds (I′) through (VII) in examples 1 and 7.
The isolated (R)-enantiomer of (I) was therefore synthesised (exactly as described herein for the isolated (S)-enantiomer, but replacing the (S)-ornithine starting material with commercially available (R)-ornithine of high stereochemical purity), and the PK properties of this agent, in rat, was determined using the identical methodology described above (see Examples 1, 7 and 8).

[2] = Identification of the primary metabolites in pooled rat urine by LC-MS-MS; assay type: in vivo; conditions: single oral dose 3 mg/kg in 1% CMC, pooled urine over 24 hrs, qualitative
Experimental: (§1) Urine was collected from rats exposed to a single oral dose (3 mg/kg in 1% CMC) of each compound over a 24 hour period in metabolic cages. The pooled urine sample was then subjected to full scan mass spectral analysis, using the same LC-MS conditions as described in example 1 above. Further MS-MS analysis of the product ions was then performed, and likely fragmentations/re-arrangements assigned from the publicly available Metabolite ID database.
For the major metabolites, the assigned structures were confirmed by synthesis of authentic samples, using methods well known in the art, which were subject to LC-MS-MS analysis under the same conditions as the urine samples.
Note that metabolite ID studies provide only qualitative estimates of the relative amounts of the different metabolites present, and separately validated assays with appropriate internal standards would be required to quantitate each metabolite species.

[3] = Distribution of unchanged compound into tissues and urine 24 hrs after a single dose in rat; assay type: in vivo
Experimental: as §1
To provide a quantitative estimate of the degree of metabolism suffered by each of the compounds tested, the amount of unchanged parent compound in urine was measured using the same validated LC-MS assay described in example 1, using (S)-3-(2′,2′-dimethylpropanoylamino)-caprolactam as an internal standard. In addition, the level of compounds in various target tissues was also determined.

[4] = Stability in serum in vitro; assay type: in vitro ADME; conditions: human serum; 37° C.
Excerpt: As an approach to identifying such stable analogs, various derivatives of (S)-3-(undec-10-enoyl)-aminoglutarimide have been tested for their stability in serum.

[5] = Solubility as observed (water, dosing vehicle); assay type: physicochemical; conditions: 5% DMSO in saline
[6] = system: LPS-induced TNF-α production; experiment: Sub-lethal LPS-induced endotoxemia in mice, serum TNF-α by ELISA; assay type: in vivo; conditions: for inhibition of LPS-induced TNF-α production (reference agents, previously shown): mice, dose not stated
Experimental: FIGS. 5A-5E show representative dose response curves for the inhibition of LPS induced TNF-α production in vivo in a murine model of sub-lethal endotoxemia. In each experiment, groups of six mice received pre-treatment with the five compounds (FIG. 5A: (II); FIG. 5B: (III); FIG. 5C: (V); FIG. 5D: (I′) and FIG. 5E: (IV)) at various doses, via either the oral route (circles) or subcutaneous route (triangles). 30-60 mins later, animals were challenged with LPS via the intraperitoneal route, and serum was prepared from a terminal bleed 3 hours later. The level of TNF-α in the blood was measured by ELISA, and the degree of inhibition of LPS-induced TNF-α production (calculated as the concentration of TNF-α in mice exposed to LPS minus the concentration of TNF-α in mice which received a sham exposure to endotoxin-free PBS) is shown on the Y-axis of each graph as the mean of six animals, with whiskers representing SEMs. The concentration of TNF-α in mice receiving LPS but no BSCI treatment was typically 5,000 to 6,000 pg/ml on average (compared to <10 pg/ml in unchallenged mice). The ED50 was estimated by linear interpolation of the presented graphs. The X-axis of each graph represents the dose of each compound administered to each mouse in the group in units of mg (1E-07 to 1).
In this assay, mice are given a non-specific pro-inflammatory challenge using bacterial endotoxin (LPS), and the extent of the systemic inflammatory response (measured by serum levels of the central pro-inflammatory cytokine TNF-α, which is essentially absent from the blood under normal conditions, but is rapidly elevated in response to a wide range of inflammatory stimuli). We have selected this model even though it is not, itself, a particularly close model of any human inflammatory disease condition, but because TNF-α is known to be important in very many diseases (including rheumatoid arthritis, autoimmune disorders, Crohn's Disease, atherosclerosis, asthma and many more). Consequently, agents which suppress TNF-α production are already used clinically (e.g. Enbrel™ and other anti-TNF-α antibody products) to treat a wide range of such diseases.
Mice (in groups of 6) were pretreated with various doses of each compound, either by the subcutaneous route 30 mins prior to LPS challenge, or by the oral route (via gavage) 60 mins prior to LPS. The mice were then challenged with an intraperitoneal injection of 750 μg of bacterial LPS and sacrificed 3 hours later. Serum was prepared from a terminal bleed by cardiac puncture, and the concentration of TNF-α is determined by ELISA (R&D Systems). In each experiment, a group of 6 mice receive no LPS to act as a negative control, and a second group receive only LPS (with no candidate inhibitor). […]

[7] = system: chemokine-induced migration; conditions: read-out: ED50 inhibition of chemokine-induced migration in vitro; cited from earlier work
leukocytes in BAL fluid = experiment: Ovalbumin-induced lung inflammation model of asthma, cell counts in BAL fluid; assay type: in vivo, Brown Norway rats; conditions: 30 mg/kg daily via the oral route
Excerpt: Bars represent mean cell counts, shown on the Y axis in units of 10^6 cells, for groups of […] with whiskers representing SEM; * p<0.01 versus ‘sensitised’ using Student's unpaired t-test assuming equal variance, with two tails). The horizontal line represents the average number of leukocytes present in BAL fluid from the lungs of unchallenged rats. All rats in the remaining three groups received the same sensitisation and challenge regimen, but were either treated with vehicle only (‘Sensitised’), or with compound (I′) at 0.3 mg/kg bodyweight or with monteleukast (‘Singulair™’) at 30 mg/kg bodyweight, all administered daily by oral gavage.
Adult Brown Norway rats (200-300 g body weight; n=10 per group) were sensitised by a single intraperitoneal injection of 0.1 mg Ovalbumin on day 0. Each rat then received an intratracheal challenge with a solution of 1% ovalbumin (w/v) on day 8, and with 2% ovalbumin (w/v) on days 15, 18 and 21. The animals were then sacrificed 3 hours after the final challenge on day 21. […]
On sacrifice, total lung leukocyate recruitment was assessed by performing a broncheoalveolar lavage (BAL) using 4 lots of 3 ml sterile phosphate-buffered saline introduced through a tracheal cannula. For each animal, the BAL washes were combined, and the total cell population counted (using a haemocytometer). […]

[8] = intravenous dosing 1 mg/kg, averaged across three rats, read-out: t1/2 (mins) dominant plasma half-life

SMILES: C=CCCCCCCCCC(=O)[C@@H]1CCCNC1=O [(S)-3-(undec-10-enoyl)-tetrahydropyridin-2-one]
time completely stable in serum [4]: at least 7 days

SMILES: CCCCCCCCCCC(C)(C)C(=O)NC1CCCNC1=O (stereo not drawn) [Compound (VI), 3-(2′,2′-dimethyldodecanoylamino)-tetrahydropyridin-2-one]
solubility in iv dosing vehicle [5]: completely insoluble
AUC(0-t) [1]: 183 ng·h/mL
bioavailability ([1]; averaged across three rats): 16%
clearance ([1]; averaged across three rats): 40.3 mL/min/kg
Vd ([1]; averaged across three rats): 1.95 L/kg
half-life [1, 8]: 46 min
half-life ([1]; read-out: plasma half-life): < 60 min

SMILES: C=CCCCCCCCCC(=O)N[C@H]1CCC(=O)NC1=O [NR58,4, (S)-3-(undec-10-enoyl)-aminoglutarimide]
fold less potent in vivo than 3-(2′,2′-dimethylpropanoylamino)-tetrahydropyridin-2-one ([6]; models of acute inflammation such as LPS-induced endotoxemia): at least 250 fold
EC50 [7]: 5 nM

SMILES: C[C@@H]1C[C@H]2[C@@H]3CCC4=CC(=O)C=C[C@]4(C)[C@@]3(F)[C@@H](O)C[C@]2(C)[C@@]1(O)C(=O)CO [dexamethasone]
inhibition of LPS-induced TNF-α production (reference agents, previously shown) [6]: at least 90%

SMILES: CC(C)(O)c1ccccc1CC[C@@H](SCC1(CC(=O)O)CC1)c1cccc(/C=C/c2ccc3ccc(Cl)cc3n2)c1 [monteleukast]
effect on the number of leukocytes in the BAL washes (leukocytes in BAL fluid): significantly reduced the number of leukocytes in the BAL washes

SMILES: O=C1CCC(N2C(=O)c3ccccc3C2=O)C(=O)N1 (stereo not drawn) [thalidomide]
inhibition of LPS-induced TNF-α production (reference agents, previously shown) [6]: about 60%

The next lines start with results.

bioavailability ([1]; averaged across three rats): 5%
clearance ([1]; averaged across three rats): 55 mL/min/kg
Vd ([1]; averaged across three rats): 0.6 L/kg
half-life [1, 8]: 11 min
major metabolites / route of metabolism detected in urine [2]: cytochrome P450-mediated hydroxylation
SMILES: CC1(C(=O)N[C@H]2CCCCNC2=O)CCCCC1 [(III), 3-(1′-methylcyclohexylcarbonylamino)-caprolactam]

Urine (ng/ml) unchanged parent compound ([3]; 24 hrs after a single oral dose 3 mg/kg in 1% CMC): 1010 ng/mL
unchanged parent compound recovered in urine, % of the injected dose ([3]; single oral dose 3 mg/kg in 1% CMC, 24 hrs): less than 10%
SMILES: CC(C)(C)S(=O)(=O)N[C@H]1CCCCNC1=O [(IV), 3-(1′,1′-dimethylethylsulfonylamino)-caprolactam]
major metabolites / route of metabolism detected in urine [2]: the major metabolite could not be identified

AUC(0-t) [1]: 542 ng·h/mL
bioavailability ([1]; averaged across three rats): 35%
clearance ([1]; averaged across three rats): 31.1 mL/min/kg
Vd ([1]; averaged across three rats): 0.7 L/kg
half-life [1, 8]: 20 min
half-life ([1]; read-out: plasma half-life): < 60 min
SMILES: O=C1NCCCC1NC(=O)C12CC3CC(CC(C3)C1)C2 (stereo not drawn) [(VII), 3-(adamanatane-1-carbonylamino)-tetrahydropyridin-2-one]
